Reference: the NIST ThermoML archive (doi:10.1016/j.jct.2013.11.022)
± gives the expanded uncertainty stated by the source.

Experiment: mn = molality of the nth substance listed, in mol/kg
Details: 101.33 kPa, Liquid; for viscosity: Capillary tube (Ostwald / Ubbelohde) method; for speed of sound: Sing-around technique in a fixed-path interferometer; for mass density: Vibrating tube method

NCC(=O)O [2-aminoacetic acid] + O
Details	mass density [kg/m3]	speed of sound [m/s]	viscosity [mPa·s]
293.15 K, m1 = 0.05	999.804 ± 0.11	1486.2 ± 1.2	1.013 ± 0.021
293.15 K, m1 = 0.0999	1001.4 ± 0.11	1488.6 ± 1.2	1.022 ± 0.021
293.15 K, m1 = 0.1499	1002.99 ± 0.11	1491.1 ± 1.2	1.029 ± 0.022
293.15 K, m1 = 0.2001	1004.57 ± 0.11	1493.6 ± 1.2	1.036 ± 0.022
293.15 K, m1 = 0.2504	1006.14 ± 0.11	1496 ± 1.2	1.039 ± 0.022
293.15 K, m1 = 0.2999	1007.67 ± 0.11	1498.4 ± 1.2	1.048 ± 0.022
293.15 K, m1 = 0.3501	1009.21 ± 0.11	1500.8 ± 1.2	1.056 ± 0.022
293.15 K, m1 = 0.3998	1010.72 ± 0.11	1503.2 ± 1.2	1.06 ± 0.022
298.15 K, m1 = 0.05	–	1500.3 ± 1.2	0.8991 ± 0.019
298.15 K, m1 = 0.0999	1000.21 ± 0.11	1502.7 ± 1.2	0.908 ± 0.019
298.15 K, m1 = 0.1499	1001.78 ± 0.11	1505.1 ± 1.2	0.9168 ± 0.019
298.15 K, m1 = 0.2001	1003.34 ± 0.11	1507.5 ± 1.2	0.9232 ± 0.019
298.15 K, m1 = 0.2504	1004.9 ± 0.11	1510 ± 1.2	0.9281 ± 0.019
298.15 K, m1 = 0.2999	1006.41 ± 0.11	1512.3 ± 1.2	0.933 ± 0.02
298.15 K, m1 = 0.3501	1007.93 ± 0.11	1514.7 ± 1.2	0.9379 ± 0.02
298.15 K, m1 = 0.3998	1009.43 ± 0.11	1517 ± 1.2	0.946 ± 0.02
303.15 K, m1 = 0.05	–	1512.6 ± 1.2	0.8077 ± 0.017
303.15 K, m1 = 0.0999	998.773 ± 0.11	1514.9 ± 1.2	0.8177 ± 0.017
303.15 K, m1 = 0.1499	1000.33 ± 0.11	1517.3 ± 1.2	0.8258 ± 0.017
303.15 K, m1 = 0.2001	1001.88 ± 0.11	1519.6 ± 1.2	0.8319 ± 0.017
303.15 K, m1 = 0.2504	1003.42 ± 0.11	1522 ± 1.2	0.8398 ± 0.018
303.15 K, m1 = 0.2999	1004.92 ± 0.11	1524.2 ± 1.2	0.8434 ± 0.018
303.15 K, m1 = 0.3501	1006.43 ± 0.11	1526.5 ± 1.2	0.8511 ± 0.018
303.15 K, m1 = 0.3998	1007.92 ± 0.11	1528.8 ± 1.2	0.8533 ± 0.018
308.15 K, m1 = 0.05	995.577 ± 0.11	1523.1 ± 1.2	0.7296 ± 0.015
308.15 K, m1 = 0.0999	997.132 ± 0.11	1525.4 ± 1.2	0.7366 ± 0.015
308.15 K, m1 = 0.1499	998.677 ± 0.11	1527.7 ± 1.2	0.7404 ± 0.016
308.15 K, m1 = 0.2001	1000.22 ± 0.11	1530 ± 1.2	0.7474 ± 0.016
308.15 K, m1 = 0.2504	1001.75 ± 0.11	1532.2 ± 1.2	0.7518 ± 0.016
308.15 K, m1 = 0.2999	1003.24 ± 0.11	1534.4 ± 1.2	0.7578 ± 0.016
308.15 K, m1 = 0.3501	1004.74 ± 0.11	1536.7 ± 1.2	0.7641 ± 0.016
308.15 K, m1 = 0.3998	1006.21 ± 0.11	1538.9 ± 1.2	0.7679 ± 0.016
313.15 K, m1 = 0.05	–	1532.1 ± 1.2	0.6609 ± 0.014
313.15 K, m1 = 0.0999	–	1534.3 ± 1.2	0.6662 ± 0.014
313.15 K, m1 = 0.1499	–	1536.5 ± 1.2	0.6686 ± 0.014
313.15 K, m1 = 0.2001	–	1538.7 ± 1.2	0.6721 ± 0.014
313.15 K, m1 = 0.2504	999.881 ± 0.11	1540.9 ± 1.2	0.6759 ± 0.014
313.15 K, m1 = 0.2999	1001.36 ± 0.11	1543.1 ± 1.2	0.6798 ± 0.014
313.15 K, m1 = 0.3501	1002.86 ± 0.11	1545.3 ± 1.2	0.6851 ± 0.014
313.15 K, m1 = 0.3998	1004.33 ± 0.11	1547.5 ± 1.2	0.6881 ± 0.014
